The source of these data is the supplement of paper PMC10307832.

Holding throughout (test): relative viability (nuclei count vs DMSO), 5 days (fraction); higher = more cells survive
Compound in the assay “R406 + Foretinib”: COc1cc(Nc2ncc(F)c(Nc3ccc4c(n3)NC(=O)C(C)(C)O4)n2)cc(OC)c1OC [R406] + COc1cc2c(Oc3ccc(NC(=O)C4(C(=O)Nc5ccc(F)cc5)CC4)cc3F)ccnc2cc1OCCCN1CCOCC1 [Foretinib] (partner 0.25 µM)
In a few lines:
(§1)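 Cells from lung cancer lines were seeded into 1536-well plates and, one day later, dosed by pin tool. Treatments were either a single drug or a fixed dose of an anchor drug with five library-drug doses (not always all listed) in √10 steps. After 5 days, nuclei were stained in a one-step fixation (final 0.05% Triton X-100, 1% formaldehyde, 1 ug/ml Hoechst) and counted on 4× images, and relative viability is the treated-to-vehicle nuclei ratio, as the median of duplicate plates.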

Compound in the assay “R406 + Lapatinib”: COc1cc(Nc2ncc(F)c(Nc3ccc4c(n3)NC(=O)C(C)(C)O4)n2)cc(OC)c1OC [R406] + CS(=O)(=O)CCNCc1ccc(-c2ccc3ncnc(Nc4ccc(OCc5cccc(F)c5)c(Cl)c4)c3c2)o1 [Lapatinib] (partner 2 µM)
The procedure, abridged: as §1

Compound in the assay “Daporinad + OSI-027”: O=C(/C=C/c1cccnc1)NCCCCC1CCN(C(=O)c2ccccc2)CC1 [Daporinad] + COc1cccc2cc(-c3nc([C@H]4CC[C@H](C(=O)O)CC4)n4ncnc(N)c34)[nH]c12 [OSI-027] (partner 0.5 µM)
In a few lines: as §1

Compound in the assay “Daporinad + AZD7762”: O=C(/C=C/c1cccnc1)NCCCCC1CCN(C(=O)c2ccccc2)CC1 [Daporinad] + NC(=O)Nc1cc(-c2cccc(F)c2)sc1C(=O)N[C@H]1CCCNC1 [AZD7762] (partner 0.2 µM)
In a few lines:
as §1

On to A549, for which the relative viability with R406 + Foretinib (first compound 0.08 µM) was found to be 0.961; with R406 + Foretinib (first compound 0.253 µM), 1; in the assay with R406 + Foretinib (first compound 0.8 µM), 0.94; with R406 + Foretinib (first compound 2.53 µM), 0.959; in the assay with R406 + Foretinib (first compound 8 µM), 0.396; in the assay with R406 + Lapatinib (first compound 0.08 µM), 0.882. In addition, the relative viability in the assay with R406 + Lapatinib (first compound 0.253 µM) turned out to be 1.04; in the assay with R406 + Lapatinib (first compound 0.8 µM) it was 1.1; with R406 + Lapatinib (first compound 2.53 µM) it was 0.545; in the assay with R406 + Lapatinib (first compound 8 µM), 0.215.

Regarding COR-L23, the relative viability in the assay with R406 + Foretinib (first compound 0.08 µM) came out at 0.925; in the assay with R406 + Foretinib (first compound 0.253 µM) it was 1.18; in the assay with R406 + Foretinib (first compound 0.8 µM), 1.12; in the assay with R406 + Foretinib (first compound 2.53 µM), 0.931; with R406 + Foretinib (first compound 8 µM) it was 0.665; in the assay with R406 + Lapatinib (first compound 0.08 µM), 1.02. Besides, the relative viability in the assay with R406 + Lapatinib (first compound 0.253 µM) amounted to 1.09; with R406 + Lapatinib (first compound 0.8 µM), 1.49; with R406 + Lapatinib (first compound 2.53 µM), 1.05; with R406 + Lapatinib (first compound 8 µM), 0.47; with Daporinad + OSI-027 (first compound 0.0005 µM), 0.737; in the assay with Daporinad + OSI-027 (first compound 0.001581 µM), 0.772. Also, the relative viability with Daporinad + OSI-027 (first compound 0.005 µM) was 0.814; in the assay with Daporinad + OSI-027 (first compound 0.01581 µM) it was 0.255.

For the cell line COR-L 105, the relative viability with R406 + Foretinib (first compound 0.08 µM) worked out at 0.898; with R406 + Foretinib (first compound 0.253 µM) it was 1.4; with R406 + Foretinib (first compound 0.8 µM), 1.34; in the assay with R406 + Foretinib (first compound 2.53 µM) it was 1.1; with R406 + Foretinib (first compound 8 µM), 0.504; with R406 + Lapatinib (first compound 0.08 µM) it was 0.359. Also, the relative viability with R406 + Lapatinib (first compound 0.253 µM) was 0.391; with R406 + Lapatinib (first compound 0.8 µM) it was 0.364; with R406 + Lapatinib (first compound 2.53 µM), 0.276; with R406 + Lapatinib (first compound 8 µM) it was 0.292; in the assay with Daporinad + OSI-027 (first compound 0.0005 µM), 0.671; with Daporinad + OSI-027 (first compound 0.001581 µM), 0.748. The relative viability was 0.883 with Daporinad + OSI-027 (first compound 0.005 µM) and 0.694 in the assay with Daporinad + OSI-027 (first compound 0.01581 µM).

As for Calu-6, the relative viability with R406 + Foretinib (first compound 0.08 µM) came to 0.842; with R406 + Foretinib (first compound 0.253 µM) it was 0.927; in the assay with R406 + Foretinib (first compound 0.8 µM), 0.924; in the assay with R406 + Foretinib (first compound 2.53 µM), 0.687; in the assay with R406 + Foretinib (first compound 8 µM) it was 0.553; with R406 + Lapatinib (first compound 0.08 µM) it was 1.02. The relative viability in the assay with R406 + Lapatinib (first compound 0.253 µM) was 1.25; in the assay with R406 + Lapatinib (first compound 0.8 µM), 1.09; in the assay with R406 + Lapatinib (first compound 2.53 µM), 0.745; with R406 + Lapatinib (first compound 8 µM), 0.476.

For the cell line ChaGo-K-1, the relative viability was determined as 0.926 with R406 + Foretinib (first compound 0.08 µM); 1.07 in the assay with R406 + Foretinib (first compound 0.253 µM); 1.09 with R406 + Foretinib (first compound 0.8 µM); 0.771 with R406 + Foretinib (first compound 2.53 µM); 0.531 in the assay with R406 + Foretinib (first compound 8 µM); 0.673 in the assay with Daporinad + OSI-027 (first compound 0.0005 µM). Besides, the relative viability was found to be 0.597 with Daporinad + OSI-027 (first compound 0.001581 µM); 0.636 in the assay with Daporinad + OSI-027 (first compound 0.005 µM); 0.471 with Daporinad + OSI-027 (first compound 0.01581 µM); 0.834 with Daporinad + AZD7762 (first compound 0.0005 µM); 0.903 with Daporinad + AZD7762 (first compound 0.001581 µM); 0.755 with Daporinad + AZD7762 (first compound 0.005 µM). The relative viability with Daporinad + AZD7762 (first compound 0.01581 µM) turned out to be 0.3.

Take EBC-1: the relative viability in the assay with R406 + Foretinib (first compound 0.08 µM) was determined as 0.102; with R406 + Foretinib (first compound 0.253 µM), 0.107; in the assay with R406 + Foretinib (first compound 0.8 µM), 0.0997; with R406 + Foretinib (first compound 2.53 µM), 0.118; with R406 + Foretinib (first compound 8 µM) it was 0.122; with R406 + Lapatinib (first compound 0.08 µM), 0.22. For the same cell line, the relative viability with R406 + Lapatinib (first compound 0.253 µM) was determined as 0.226; with R406 + Lapatinib (first compound 0.8 µM) it was 0.216; with R406 + Lapatinib (first compound 2.53 µM) it was 0.233; in the assay with R406 + Lapatinib (first compound 8 µM), 0.197.

IA-LM: the relative viability came out at 1.23 with R406 + Foretinib (first compound 0.08 µM); 1.43 with R406 + Foretinib (first compound 0.253 µM); 0.958 in the assay with R406 + Foretinib (first compound 0.8 µM); 1.36 with R406 + Foretinib (first compound 2.53 µM); 1.02 in the assay with R406 + Foretinib (first compound 8 µM); 0.99 with R406 + Lapatinib (first compound 0.08 µM). Also, the relative viability is 1.26 in the assay with R406 + Lapatinib (first compound 0.253 µM), 0.797 with R406 + Lapatinib (first compound 0.8 µM), 1.01 with R406 + Lapatinib (first compound 2.53 µM) and 0.777 in the assay with R406 + Lapatinib (first compound 8 µM).

LCLC-103H: the relative viability in the assay with R406 + Foretinib (first compound 0.08 µM) came out at 0.758; in the assay with R406 + Foretinib (first compound 0.253 µM) it was 0.734; with R406 + Foretinib (first compound 0.8 µM), 0.879; in the assay with R406 + Foretinib (first compound 2.53 µM), 0.529; with R406 + Foretinib (first compound 8 µM), 0.146; with Daporinad + OSI-027 (first compound 0.0005 µM) it was 0.499. Moreover, the relative viability with Daporinad + OSI-027 (first compound 0.001581 µM) is 0.48; in the assay with Daporinad + OSI-027 (first compound 0.005 µM) it was 0.493; with Daporinad + OSI-027 (first compound 0.01581 µM), 0.471; with Daporinad + AZD7762 (first compound 0.0005 µM) it was 0.829; in the assay with Daporinad + AZD7762 (first compound 0.001581 µM), 0.829; in the assay with Daporinad + AZD7762 (first compound 0.005 µM), 0.773. The relative viability with Daporinad + AZD7762 (first compound 0.01581 µM) was determined as 0.851.

For the cell line NCI-H520, the relative viability in the assay with R406 + Foretinib (first compound 0.08 µM) is 0.831; with R406 + Foretinib (first compound 0.253 µM), 1; with R406 + Foretinib (first compound 0.8 µM), 0.883; with R406 + Foretinib (first compound 2.53 µM) it was 0.293; with R406 + Foretinib (first compound 8 µM) it was 0.421; with R406 + Lapatinib (first compound 0.08 µM), 0.733. Moreover, the relative viability with R406 + Lapatinib (first compound 0.253 µM) was 1.03; with R406 + Lapatinib (first compound 0.8 µM) it was 1.02; with R406 + Lapatinib (first compound 2.53 µM) it was 0.241; with R406 + Lapatinib (first compound 8 µM), 0.133; with Daporinad + OSI-027 (first compound 0.0005 µM), 0.245; in the assay with Daporinad + OSI-027 (first compound 0.001581 µM) it was 0.222. Also, the relative viability amounted to 0.328 with Daporinad + OSI-027 (first compound 0.005 µM) and 0.234 in the assay with Daporinad + OSI-027 (first compound 0.01581 µM).

On to NCI-H522, for which the relative viability with Daporinad + OSI-027 (first compound 0.0005 µM) came to 0.612; in the assay with Daporinad + OSI-027 (first compound 0.001581 µM), 0.942; with Daporinad + OSI-027 (first compound 0.005 µM), 0.762; in the assay with Daporinad + OSI-027 (first compound 0.01581 µM), 0.667; in the assay with Daporinad + AZD7762 (first compound 0.0005 µM), 0.808; with Daporinad + AZD7762 (first compound 0.001581 µM) it was 1.13. Moreover, the figures for the relative viability in the assay with Daporinad + AZD7762 (first compound 0.005 µM) and in the assay with Daporinad + AZD7762 (first compound 0.01581 µM) were 0.816 and 0.538, respectively.

For NCI-H661, the relative viability with R406 + Foretinib (first compound 0.08 µM) was determined as 0.895; with R406 + Foretinib (first compound 0.253 µM) it was 1.04; with R406 + Foretinib (first compound 0.8 µM) it was 0.988; with R406 + Foretinib (first compound 2.53 µM) it was 1; in the assay with R406 + Foretinib (first compound 8 µM), 0.76; with R406 + Lapatinib (first compound 0.08 µM), 0.435. The relative viability in the assay with R406 + Lapatinib (first compound 0.253 µM) came to 0.48; with R406 + Lapatinib (first compound 0.8 µM), 0.413; with R406 + Lapatinib (first compound 2.53 µM) it was 0.362; with R406 + Lapatinib (first compound 8 µM), 0.277; with Daporinad + OSI-027 (first compound 0.0005 µM), 0.811; with Daporinad + OSI-027 (first compound 0.001581 µM), 0.719. The relative viability with Daporinad + OSI-027 (first compound 0.005 µM) stood at 0.74; with Daporinad + OSI-027 (first compound 0.01581 µM), 0.341.

Take NCI-H1299: the relative viability worked out at 1.01 with R406 + Foretinib (first compound 0.08 µM); 1.14 with R406 + Foretinib (first compound 0.253 µM); 1.07 with R406 + Foretinib (first compound 0.8 µM); 1.2 with R406 + Foretinib (first compound 2.53 µM); 1.02 with R406 + Foretinib (first compound 8 µM); 1.01 with R406 + Lapatinib (first compound 0.08 µM). Further, the relative viability with R406 + Lapatinib (first compound 0.253 µM) was 0.982; in the assay with R406 + Lapatinib (first compound 0.8 µM), 0.98; with R406 + Lapatinib (first compound 2.53 µM), 0.933; in the assay with R406 + Lapatinib (first compound 8 µM) it was 0.721.
